Measurements: US20230407245A1, “Media and methods for establishing and maintaining early embryo-like cells” (BGI SHENZHEN GROUP HOLDINGS CO., LIMITED, priority 2020, published 2023)

Test system: primed human PSCs
Test: Conversion of primed human PSCs to ICLCs, RT-qPCR of preimplantation ICM markers
Assay type: cell-based
Conditions: for expression of preimplantation ICM markers (RT-qPCR) in ICLCs with a different dosage of one component, compared to primed human PSCs: H9, 4CL medium 1 with PD0325901 0.5 μM, TSA 20 nM, DZNep 5, 20 or 50 nM
Protocol: All provided human PSCs were routinely maintained on Matrigel™ or Geltrex™ coated plates in mTeSR1 or E8 medium. Generally, cells were passaged every 4 to 5 days with 0.5 mM EDTA. For passaging, cells were washed with PBS once and treated with 0.5 mM EDTA for 5 mins. Then, EDTA was removed and cells were detached as small clumps using a Pasteur pipette with mTeSR1 or E8 medium. Primed human PSCs were grown in an incubator under normoxic conditions (37° C., 5% CO2).
One day before initiation of conversion, primed human PSCs were washed with PBS once and dissociated into single cells and plated at a density of 1,000 to 1,500 cells/cm 2 on feeder in mTeSR1 or E8 medium supplemented with 10 μM Y27632. Twenty-four hours later, culture medium was switched to 4CL medium 1. The culture medium was refreshed with the same medium every 24 hours. Colonies became round and domed-shape in 24 to 48 hours. Cells were passaged every 3 to 4 days. For passaging, cells were dissociated into single cells using TrypLE: 0.5 mM EDTA (1:1) and plated at a density of 1,000 to 1,500 cells/cm 2 on feeder (feeders were seeded on Geltrex™/Matrigel™ pre-treated plate) (FIG. 1). The ICLCs induction and maintenance can be conducted under hypoxic condition (37° C., 5% CO2, 5% O2), or normoxic condition (37° C., 5% CO2, 21% O2) (FIG. 34), preferably hypoxia condition.
Using the same procedures of example 1, except plating cells on 1% (v/v) Geltrex™ in DMEM-F12 (cat #) coated plates instead of on feeder cells.
Primed human PSCs were cultured following the same procedures of example 1. One day before initiation of the conversion, primed human PSCs were dissociated into single cells and plated 60,000 cells/well in Aggrewell™ 800 plates using mTeSR1 or E8 medium supplemented with 10 μM Y27632. Twenty-four hours later, culture medium was changed into 4CL medium 1, culture condition was then switched to hypoxic condition. Cells formed small spheres in 3 days. The spheres were then lifted and transferred to flasks (Greiner Bio-One, 658190) for suspension culture. Medium was refreshed daily. Cells were passaged every 4 to 5 days. For passaging, cells were dissociated into single cells using TrypLE: 0.5 mM EDTA (1:1), then cells were resuspended in 4CL medium 1 at a density of 150,000 cells/ml. The resuspended cells were added into flasks (Greiner Bio-One, 658190) for suspension culture. Cells formed small aggregates in 24 hours. Generally, cells were converted to ICLCs in approximately 3 weeks after initiation.
Same as example 1, but different dosages of either PD0325901, DZNep, or TSA were also used: PD0325901, 0.5 μM; TSA, 20 nM; DZNep, 5 nM, 20 nM or 50 nM.

Row | Compound | expression of preimplantation ICM markers (RT-qPCR) in ICLCs with a different dosage of one component, compared to primed human PSCs | expression levels of ICM specific genes such as DNMT3L, STELLA, DPPA5, KLF17 (final concentration of 40 to 70 ng/mL)
1 | Nc1nccc2c1ncn2[C@@H]1C=C(CO)[C@@H](O)[C@H]1O [DZNep, 3-deazaneplanocin A] | significantly induced | 
2 | O=C1O[C@H]([C@@H](O)CO)C(O)=C1O [L-ascorbic acid] |  | potently increases
3 | O=C(NOC[C@H](O)CO)c1ccc(F)c(F)c1Nc1ccc(I)cc1F [PD0325901] | significantly induced | 
4 | CC(/C=C/C(=O)NO)=C\[C@@H](C)C(=O)c1ccc(N(C)C)cc1 [TSA, trichostatin A] | significantly induced | 
